“Also recorded” adds a separate entry of the source.
Assays:
[1] = test system: human erythroleukemia (HEL) cells; test: MCP-1 induced calcium flux in HEL cells; format: cell-based
Method: Because monocytes are difficult to isolate in usable quantity and express less than 2000 high affinity MCP-1 binding sites per cell, a cultured cell line that responded well to MCP-1 had to be identified. Using the calcium effiux assay as described in Vu, Cell 64:1057-68(1991), MCP-1 induced calcium fluxes in various cell lines were measured. […] In contrast, a dose-dependent calcium flux was detected in MM6 cells, with half maximal stimulation at 4nM MCP-1.

MIP-1α/RANTES receptor = test: Ca45 efflux assay in Xenopus oocytes, MIP-1α/RANTES receptor examined in parallel; format: cell-based
MCP-1RB receptor [2] = test: Intracellular calcium mobilization (indo-1) in stably transfected MCP-1RB/293 cells; format: cell-based, human; conditions: MCP-1RB/293 cells
Method: Calcium mobilization in 293 cells was then investigated. Transfected HEK-293 cells were grown until confluent, trypsinized briefly, washed with phosphate buffered saline containing 1 mg/ml BSA (PBS-BSA), and resuspended in serum-free MEM-EBSS supplemented with 1 mg/ml BSA and 10 mM HEPES (pH 7.0) at a density of 2×10^7 cells/ml. The cells were incubated in the dark at 37° C. for 20 min in the presence of 5-10 μg/ml indo-1 AM (Molecular Probes, Inc., Eugene, Oreg.). Nine volumes of PGS-BSA were added, and the cells were incubated for an additional 10 min at 37° C., pelleted by centrifugation, and washed twice with 50 ml of the PBS-BSA solution. Washed, indo-1-loaded cells were then resuspended in Hank's Balanced Salt Solution (1.3 mM Ca^2+) supplemented with 1 mg/ml BSA (HBS-BSA) at a density of approximately 0.5×10^6 cells/ml at room temperature. To measure intracellular calcium ([Ca^2+ ]i), 0.5 ml of the cell suspension was placed in a quartz cuvette in a Hitachi F-2000 fluorescence spectrophotometer. […] Intracellular calcium was measured by excitation at 350 nm and fluorescence emission detection at 490 nm (F1) and 410 nm (F2) wavelengths. The [Ca^2+ ]i was estimated by comparing the 490/410 fluorescence ratio after agonist application (R) to that of calibration ratios measured at the end of each run, according to the equation:
[Ca^2+ ]i =Kd ×[(R--Rmin)/(Rmax
where Rmax and Rmin represent the fluorescence ratio under saturating (1.3 mM Ca^2+) and nominally free (10 mM EGTA, Sigma Chemical Co.) calcium conditions, Kd is the dissociation constant of calcium for indo-1, R is the fluorescence ratio, and Sf2/Sb2 is the fluorescence ratio of free and bound indo-1 dye at 410 nm. See Thomas, AP and Delaville, F (1991) in Cellular Calcium, a Practical Approach, Oxford Univ. Press, pp. 1-54.
To quantirate calcium responses, MCP-1 dose response curves were generated in each experiment and the results were expressed as a percent of the maximum calcium signal (at 300 nM MCP-1) measured in that experiment. The changes in [Ca^2+ ]i levels in response to each concentration of agonist were determined by subtracting the baseline from peak [Ca^2+ ]i levels, which were determined by averaging 5 seconds of data prior to agonist addition and surrounding the peak response, respectively. In experiments done to determine the role of extracellular calcium, 3 mM EGTA was added 60-90 seconds prior to MCP-1. […] All experiments were performed at room temperature.
(§1) Inhibition of MCP-1RB receptor activation by bordetella pertussis toxin was investigated. Pertussis toxin (List Biological Labs, Inc., Campbell, Calif.) was dissolved in 0.01M sodium phosphate, pH 7.0, 0.05M sodium chloride and diluted into normal serum containing media at final concentrations of 0.1 ng/ml to 100 ng/ml, and incubated with cells overnight (14-16 h) at 37° C. The conditions of the Pertussis toxin treatment of the 293 cells were identical for calcium fluorimetric and adenylyl cyclase experiments. In the adenylyl cyclase experiments, the Pertussis toxin was added at the same time as [^3 H]adenine.
(§2) Dose response curves generated in the calcium fluorimetric and adenylyl cyclase inhibition assays were fit by a nonlinear least squares program to the logistic equation:
(§3) Effect=max effect/[1+(EC50 /(agonist)^n)]
(§4) where n and EC50 represent the Hill coefficient and the agonist concentration that elicited a half-maximal response, respectively, and were derived from the fitted curve. Curve fitting was done with the computer program "Prism" (by Graph Pad, San Diego, Calif.). Results represent the mean ±SE. The 95% confidence intervals (CI) of the EC50 and IC50 values, when given, were calculated from the log EC50 and IC50 values, respectively.

MCP-1RB receptor [3] = format: cell-based, human
Method: To investigate inhibition of adenylyl cyclase activity, HEK-293 cells stably-transfected with the MCP-1RB receptor and the MIP-1α/RANTES receptor were grown until confluent in 24-well tissue culture dishes and labeled overnight with 2 μCi/ml of [^3 H]adenine (25-30 Ci/mmol) (New England Nuclear, Boston, Mass.) in MEM-EBSS supplemented with 10% FCS. The next day, the cells were washed by incubation at room temperature with 0.5 ml of serum-free MEM-EBSS media supplemented with 10 mM HEPES, 1 mg/ml BSA, and 1 mM IBMX (3-isobutyl-1-methylxanthine) for 5 min. […] The incubation was terminated by replacement of the media with 1 ml of ice-cold 5% TCA (trichloroacetic acid), 1 mM cAMP, and 1 mM ATP (Sigma). Following incubation at 4° C. for 30 min, the labeled [^3 H]ATP and [3H]cAMP pools were separated and quantitated by chromatography on Dowex 50W (200-400 mesh, hydrogen form, from Sigma) and neutral alumina columns (also from Sigma), as described in Hung, J. Biol. Chem. 267:20831-34 (1992) and Wong, Nature 351: 63-65 (1991). The 1 ml acid supernatant was loaded onto a 1-ml Dowex 50W column and the ATP pool eluted with 3 ml of H2 O. The Dowex 50W columns were then placed over 1-ml alumina columns, and 10 ml of H2 O was added to the Dowex resin and the eluant allowed to drop directly onto the neutral alumina. The cAMP pool was then eluted directly from the alumina with 5 ml of 0.1M imidazole/0.01mM sodium azide. The [^3 H]ATP and [^3 H]cAMP fractions were counted by liquid scintillation spectroscopy. The cAMP pool for each sample was normalized to its own ATP pool and expressed as a ratio by the equation (cAMP cpms/ATP cpms)×100. In each experiment full dose-response curves were generated and expressed as a percent of the forskolin control.
as §1, §2, §3, §4

[4] = test system: untransfected or pcDNA3 transfected 293 cell controls; test: cAMP formation in untransfected or pcDNA3 transfected 293 cell controls; format: cell-based, human; conditions: cells without receptor
monocyte = conditions: Yoshimura, J. Immunol. 145:292-97 (1990); cited from earlier work

monocyte chemoattractant protein-1 [MCP-1]
MCP-1 induced calcium flux [1]: No calcium flux was detected | receptor signaling in response to chemokine (MIP-1α/RANTES receptor): not to MCP-1 | concentration giving small but reproducible calcium signals (MCP-1RB receptor [2]): 100 pM | homologous desensitization to a second challenge with MCP-1 (MCP-1RB receptor [2]): refractory to activation by a second challenge; also recorded: desensitized the cells to a second addition | time to peak of calcium transients after addition (MCP-1RB receptor [2]): 4 to 8 s | EC50 (MCP-1RB receptor [2]; average of four full dose-response curves): 2 to 4 nM | selectivity for the MCP-1 receptor (MCP-1RB receptor [3]): at least 9000 fold | block of forskolin-induced increase of cAMP (MCP-1RB receptor [3]; co-addition with forskolin): 78% | reduction of basal cAMP accumulation (MCP-1RB receptor [3]; no forskolin, p<0.01): 55% | effect on cAMP formation [4]: neither stimulated nor inhibited | EC50 for monocyte chemotaxis (monocyte): subnanomolar
